The values below come from patent publication US7390870B2, “Immune-enhancing peptides” (Posco, priority 2001, dated 2008).

No end group written: not given here.

One assay deals with 3T3L1 (preadipocyte). The assay can be described thus: [Ca2+]i rise in 3T3L1 cells (fura-2). Type of assay: cell-based. The following applies: FIG. 4A; 20 μM peptide. How it is done: (§1) The level of [Ca^2+]i was determined by Grynkiewicz's method using fura-2/AM (21). Briefly, prepared cells were incubated with 3 μM fura-2/AM at 37° C. for 50 minutes in a fresh serum-free RPMI 1640 medium under continuous stirring. 2×10^6 cells were aliquoted for each assay in Ca^2+-free Locke's solution (154 mM NaCl, 5.6 mM KCl1.2 mM MgCl2, 5 mM HEPES, pH 7.3, 10 mM glucose, and 0.2 mM EGTA). The fluorescence changes at the dual excitation wavelengths of 340 nm and 380 nm and the emission wavelength of 500 nm were measured, and the calibrated fluorescence ratio was translated into [Ca^2+]i.
(§2) From the fact that HFYLPM, MFYLPM, and HFYLPm stimulate human monocytes, effects of the peptides on other leukocytes such as neutrophils were evaluated. Prepared human primary monocytes, neutrophils, cultured HL60, Jurkat, U937, NIH3T3, 3Y1, 3T3L1, and PC12 cells were loaded with fura-2 and stimulated with effective concentrations of the three peptides (1 μM for monocyte and neutrophil; 10 μM for HL60 and Jurkat; 20 μM for U937, NIH3T3, 3Y1, 3T3L1, and PC12). The peak level of the [Ca^2+]i increase was recorded and superoxide generation was measured using cytochrome c reduction assay. The results are shown FIG. 4. The data of FIG. 4 are presented as means ±S.E. from at least three independent experiments.

For assay [1], the system named is differentiated HL60 cells. Description: [Ca2+]i increase in differentiated HL60 cells (dHL60, granulocyte phenotype). Type of assay: cell-based, human. The following applies: FIG. 5; various concentrations. Here is the method:
U937 (human histiocytic lymphoma cells), HL60 (human promyelocytic leukemia cells), Jurkat (human T cell leukemia cells), NIH3T3 (NIH Swiss mouse embryo fibroblasts), 3Y1 (Rat embryonic fibroblasts), 3T3L1 (preadipocytes), and PC12 (rat adrenal pheochromocytoma cells) were obtained from the American Type Culture Collection (Rockville, Md.) and maintained as re, commended. The cells were maintained at about 1×10^6 cells/ml under standard incubator conditions (humidified atmosphere, 95% air, 5% CO2, 37° C.). HL60 cells were induced to differentiate into the granulocyte phenotype by adding dimethylsulfoxide (DMSO) (final concentration 1.25%, v/v) for 4 days to the culture medium as has been described before (18).
The level of [Ca^2+]i was determined by Grynkiewicz's method using fura-2/AM (21). Briefly, prepared cells were incubated with 3 μM fura-2/AM at 37° C. for 50 minutes in a fresh serum-free RPMI 1640 medium under continuous stirring. […] The fluorescence changes at the dual excitation wavelengths of 340 nm and 380 nm and the emission wavelength of 500 nm were measured, and the calibrated fluorescence ratio was translated into [Ca^2+]i.
A test where the three peptides on HL60 cells that had differentiated into granulocytes after having been cultured in the presence of 1.25% DMSO for 4 days was performed. […] The peak level of the [Ca^2+]i increase was recorded. […]

The test system of assay [2] is human neutrophils. The assay can be described thus: [Ca2+]i increase in human neutrophils (fura-2). It is filed as cell-based. As to conditions: FIG. 4A; 1 μM peptide. How it is done: as §1, §2
Assay [3] has as its system human neutrophils. The assay can be described thus: Superoxide generation by human neutrophils (cytochrome c reduction assay). It is filed as cell-based. As to conditions: FIG. 4B; 10 μM of each peptide. How it is done:
(§3) For initial screening of the PS-SPCLs, the superoxide anion generation of each peptide pool was evaluated by measuring reduction of cytochrome c using a microtiter 96 well plate ELISA reader (Bio-Tekinstruments, EL312e, Winooski, Vt.) as described (20). The cytochrome c was purchased from Sigma (St. Louis, Mo.). The human monocytes (9×10^5 cells/100 □ of RPMI 1640 medium per well of a 96-well plate) were preincubated with 50 μM cytochrome c at 37° C. for 1 minute and then incubated with the indicated concentrations of peptide pools (final 0.5 nM per peptide sequence for the initial screening). The superoxide generation was measured as change in light absorption at 550 nm over 5 minutes at 1 minute intervals. From at least four independent experiments, peptides with active amino acids at each position were chosen. Superoxide generation by the identified peptides was measured by the same method. Spurious reduction of cytochrome c was ruled out by checking that the peptides-induced ones were superoxide dismutase-inhibitable in all experiments.
From the fact that HFYLPM, MFYLPM, and HFYLPm stimulate human monocytes, effects of the peptides on other leukocytes such as neutrophils were evaluated. […] The peak level of the [Ca^2+]i increase was recorded and superoxide generation was measured using cytochrome c reduction assay. […]

Assay [4] deals with differentiated HL60 cells. The assay can be described thus: Superoxide generation in differentiated HL60 cells. It is filed as cell-based, human. The following applies: similar concentrations as for the [Ca2+]i increase. Here is the method:
as §3
A test where the three peptides on HL60 cells that had differentiated into granulocytes after having been cultured in the presence of 1.25% DMSO for 4 days was performed. HL60 cells were cultured in RPMI medium containing 20% FCS. […] The peak level of the [Ca^2+]i increase was recorded. […]

For the substance “Met-Phe-Tyr-Leu-Pro-Met-CONH2 (MFYLPM-NH2)”, in the assay with 3T3L1 (preadipocyte), the “[Ca2+]i rise in 3T3L1 cells” value is given as “no response”. In assay [1], the “[Ca2+]i rise in differentiated HL60 cells” value is “stimulated both undifferentiated and differentiated HL60 cells”. The “[Ca2+]i increase in neutrophils” value with human neutrophils [2] was “increase their [Ca^2+]i”. For the same substance, the “superoxide generation by neutrophils” value with human neutrophils [3] is reported as “generate superoxides”. Besides, the “superoxide generation in differentiated HL60 cells” value in assay [4] is on record as “resulted in superoxide generation”.
